Literature values in patent publication EP1586313A1, “Pharmaceutical composition with metoclopramide and process for its preparation” (The Jordanian Pharmaceutical Manufacturing Co. Ltd., priority 2004, dated 2005).

Settings: reportedly

peak plasma metoclopramide concentrations associated with metoclopramide induced akathisia: greater than 120 ng/ml
SMILES: CCN(CC)CCNC(=O)c1cc(Cl)c(N)cc1OC.Cl.O [metoclopramide, 4-amino-5-chloro-N-(2-diethylaminoethyl)-2-methoxybenzamide hydrochloride monohydrate]
